In patent US20240016942A1, “STAT DEGRADERS AND USES THEREOF” (Kymera Therapeutics, Inc., priority 2020, published 2024) one finds DC50 data, which are given here for 22 compounds.

Read-outs that look alike come from different tables or passages of the source. Bounds are passed on as bounds.

The experiment has as its target T1, STAT3 (Homo sapiens, UniProt P40763).
T1 construct: expressed in transfected cells; host or cells: A549
As to the kind of experiment: STAT3 HiBiT degradation assay (Nano-Glo HiBiT lytic detection) in transfected A549 cells. Format: cell-based. Here is the method:
Example 1. HiBiT Assay Protocol
Compound preparation and Cell seeding: The transfected A549 cells were harvested from dish into cell culture medium and cell numbers counted. Cells were diluted with culture medium to the desired density and 30 μL of cell suspension (about 2000 cells/well) were added into each well of a 384-well cell culture plate as designated and transferred into 37° C. 5% CO2 incubator for 24 h. Compounds were dissolved to 10 mM stock solution and 12 μL of the stock solution was transferred to a 384 LDV-plate. 3 fold, 10-point dilution was performed by transferring 4 μL compound into 8 μL DMSO using a TECAN (EVO200) liquid handler. 30 μl of diluted compound from compound source plate was transferred into the cell plate as designated by using Echo550 and transferred into 37° C. 5% CO2 incubator for 24 h.
Detection: Plates were removed from incubators and equilibrated at room temperature for 15 minutes. Nano-Glo Hibit Lytic Detection reagent (Promega Cat #N3040) was thawed and equilibrated to room temperature before the experiment. 30 μL of Nano-Glo Hibit Lytic Detection reagent was added into each well to be detected. The plates were held at room temperature for 10 min followed by reading on EnSpire.
Data analysis: The remaining activity was calculated following the formula: Remaining Activity (%)=100%×(Lumsample−LumNC)/(LumPC−LumNC). Calculate the IC50 by fitting the curve using Xlfit (v5.3.1.3), equation 201: fit=(A+((B−A)/(1+((x/C)^D)))); A: Botton; B: Top; C: IC50; and D: Slope.
The letter codes for STAT3 DC50 include: A (<0.01 μM), B (0.01-0.1 μM), C (0.1-1.0 μM), and D (>1.0 μM).
In general terms: HiBiT is a short tag that completes a luciferase, so light tracks the accessible tagged protein.

The mark [1] stands for this setting: 24 h compound incubation, read-out: STAT3 HiBIT A549 degradation 24 h: Average external-Abs DC50.

T1 sequence (P40763 whole entry): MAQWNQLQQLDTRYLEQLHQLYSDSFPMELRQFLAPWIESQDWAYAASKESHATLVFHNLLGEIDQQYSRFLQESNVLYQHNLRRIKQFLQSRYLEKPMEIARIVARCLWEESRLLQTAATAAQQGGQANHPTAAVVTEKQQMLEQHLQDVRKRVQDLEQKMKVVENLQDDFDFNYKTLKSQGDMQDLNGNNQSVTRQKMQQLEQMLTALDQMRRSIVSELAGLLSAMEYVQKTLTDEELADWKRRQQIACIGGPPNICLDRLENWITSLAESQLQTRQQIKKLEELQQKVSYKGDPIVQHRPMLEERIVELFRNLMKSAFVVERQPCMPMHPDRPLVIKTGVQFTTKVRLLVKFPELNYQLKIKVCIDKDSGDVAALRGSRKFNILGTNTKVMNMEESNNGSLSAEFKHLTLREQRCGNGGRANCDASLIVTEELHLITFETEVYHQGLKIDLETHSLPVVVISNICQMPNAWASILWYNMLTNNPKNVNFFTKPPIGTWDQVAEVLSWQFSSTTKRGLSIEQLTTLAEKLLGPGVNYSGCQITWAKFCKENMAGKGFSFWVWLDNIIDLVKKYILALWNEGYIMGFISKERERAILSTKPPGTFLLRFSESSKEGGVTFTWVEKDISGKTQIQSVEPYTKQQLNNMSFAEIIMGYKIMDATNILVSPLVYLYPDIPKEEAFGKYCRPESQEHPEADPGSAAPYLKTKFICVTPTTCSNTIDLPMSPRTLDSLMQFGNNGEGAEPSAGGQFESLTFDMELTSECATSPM

As usually defined, the DC50 is the concentration at which degradation of the target reaches its halfway point. Take `Cc1ncsc1-c1ccc([C@H](C)NC(=O)[C@@H]2C[C@@H](O)CN2C(=O)[C@@H](NC(=O)CCCc2cc(F)cc(OC[C@H](CCC(N)=O)NC(=O)[C@@H]3CC[C@@H]4CCCC[C@H](NC(=O)c5cc6cc(C(=O)P(=O)(O)O)ccc6[nH]5)C(=O)N43)c2Cl)C(C)(C)C)cc1` [I-8]: under setting [1], the half-maximal degradation concentration (DC50) is below 10 nM.
On the same count and under the same terms, the same measure for `Cc1ncsc1-c1ccc([C@H](C)NC(=O)[C@@H]2C[C@@H](O)CN2C(=O)[C@@H](NC(=O)CCCc2cccc(OC[C@H](CCC(N)=O)NC(=O)[C@@H]3CCCN3C(=O)[C@@H](NC(=O)c3cc4cc(C(=O)P(=O)(O)O)ccc4[nH]3)C3CCCCC3)c2Cl)C(C)(C)C)cc1` [I-12]: 10 to 100 nM; for `Cn1c(=O)n(C2CCC(=O)NC2=O)c2ccc(NC[C@H]3CC[C@H](C(=O)N4CC[C@H]5CC[C@@H](C(=O)N[C@@H](CCC(N)=O)C(=O)NCc6ccc(S(C)(=O)=O)cc6)N5C(=O)[C@@H](NC(=O)c5cc6cc(C(=O)P(=O)(O)O)ccc6[nH]5)C4)CC3)cc21` (stereo partly shown) [I-47]: 10 to 100 nM; for `CC(C)c1ccc(CNC(=O)[C@H](CCC(N)=O)NC(=O)[C@@H]2CC[C@@H]3CCN(C(=O)[C@H]4CC[C@@H](CCc5ccc6c(c5)n(C)c(=O)n6C5CCC(=O)NC5=O)CC4)C[C@H](NC(=O)c4cc5cc(C(F)(F)P(=O)(O)O)ccc5s4)C(=O)N32)cc1` (stereo partly shown) [I-97]: above 1000 nM.
For `Cc1ncsc1-c1ccc([C@H](C)NC(=O)[C@@H]2C[C@@H](O)CN2C(=O)[C@@H](NC(=O)CCCc2cccc(OC[C@H](CCC(N)=O)NC(=O)[C@@H]3CCCN3C(=O)CNC(=O)c3cc4cc(C(=O)P(=O)(O)O)ccc4[nH]3)c2Cl)C(C)(C)C)cc1` [I-13], the DC50 under setting [1] was 10 to 100 nM.
`Cc1cc(CCCC(=O)N[C@H](C(=O)N2C[C@H](O)C[C@H]2C(=O)N[C@@H](C)c2ccc(-c3scnc3C)cc2)C(C)(C)C)c(Cl)c(OC[C@H](CCC(N)=O)NC(=O)[C@@H]2CC[C@@H]3CCCC[C@H](NC(=O)c4cc5cc(C(=O)P(=O)(O)O)ccc5[nH]4)C(=O)N32)c1` [I-5]: the DC50 under setting [1] was below 10 nM.
Regarding `Cn1c(=O)n(C2CCC(=O)NC2=O)c2ccc(C[C@H]3CC[C@@H](CC(=O)N4CC[C@H]5CC[C@@H](C(=O)N[C@@H](CCC(N)=O)C(=O)NCc6ccc(S(C)(=O)=O)c(F)c6)N5C(=O)[C@@H](NC(=O)c5cc6cc(C(=O)P(=O)(O)O)ccc6[nH]5)C4)CC3)cc21` (stereo partly shown) [I-46], the half-maximal degradation concentration (DC50) (read-out: STAT3 HiBIT A549 degradation 24 h: Average external-Abs DC50, 24 h compound incubation) was in the range of 10 to 100 nM.
In the case of `Cn1c(=O)n(C2CCC(=O)NC2=O)c2ccc(C[C@H]3CC[C@@H](CC(=O)N4CC[C@H]5CC[C@@H](C(=O)N[C@@H](CCC(N)=O)COc6cccc(S(C)(=O)=O)c6)N5C(=O)[C@@H](NC(=O)c5cc6cc(C(=O)P(=O)(O)O)ccc6[nH]5)C4)CC3)cc21` (stereo partly shown) [I-51], the DC50 under setting [1] was in the range of 10 to 100 nM.
With `CC(=O)N1CC[C@H]2CC[C@@H](C(=O)N[C@@H](CCC(N)=O)COc3cc(C)cc(CCCC(=O)N[C@H](C(=O)N4C[C@H](O)C[C@H]4C(=O)N[C@@H](C)c4ccc(-c5scnc5C)cc4)C(C)(C)C)c3F)N2C(=O)[C@@H](NC(=O)c2cc3cc(C(=O)P(=O)(O)O)ccc3[nH]2)C1` [I-78], the half-maximal degradation concentration (DC50) under setting [1] is below 10 nM.
Regarding `C[C@H](CCC(=O)N(C)C)NC(=O)[C@@H]1Cc2cc(CCCCCCc3ccc4c(c3)n(C)c(=O)n4C3CCC(=O)NC3=O)cc3c2N1C(=O)[C@@H](NC(=O)c1cc2cc(C(=O)P(=O)(O)O)ccc2[nH]1)CC3` (stereo partly shown) [I-21], the DC50 under setting [1] was above 1000 nM.
Consider `C[C@H](CCC(N)=O)NC(=O)[C@@H]1Cc2cc(CCCCCCc3ccc4c(c3)n(C)c(=O)n4C3CCC(=O)NC3=O)cc3c2N1C(=O)[C@@H](NC(=O)c1cc2cc(C(=O)P(=O)(O)O)ccc2[nH]1)CC3` (stereo partly shown) [I-49], for which, under setting [1], the 50% degradation concentration (DC50) lay in the range of 10 to 100 nM.
Turning to `CN(C)C(=O)[C@@H]1Cc2cc(CCCCCCc3ccc4c(c3)n(C)c(=O)n4C3CCC(=O)NC3=O)cc3c2N1C(=O)[C@@H](NC(=O)c1cc2cc(C(=O)P(=O)(O)O)ccc2[nH]1)CC3` (stereo partly drawn) [I-25, 2-[[(2S, 11S)-2-(dimethylcarbamoyl)-6-[6-[1-(2,6-dioxopiperidin-3-yl)-3-methyl-2-oxo-1,3-benzodiazol-5-yl]hexyl]-12-oxo-1-azatricyclo [6.4.1.0^[4, 13]]trideca-4(13), 5,7-trien-11-yl]carbamoyl]-1H-indole-5-carbonylphosphonic acid], under setting [1], the DC50 was above 1000 nM.
As for `CC(=O)N1CC[C@H]2CC[C@@H](C(=O)N[C@@H](CCC(N)=O)COc3cc(F)cc(CCCC(=O)N[C@H](C(=O)N4C[C@H](O)C[C@H]4C(=O)N[C@@H](C)c4ccc(-c5scnc5C)cc4)C(C)(C)C)c3F)N2C(=O)[C@@H](NC(=O)c2cc3cc(C(=O)P(=O)(O)O)ccc3[nH]2)C1` [I-79], the DC50 under setting [1] is below 10 nM.
Turning to `Cc1ncsc1-c1ccc([C@H](C)NC(=O)[C@@H]2C[C@@H](O)CN2C(=O)[C@@H](NC(=O)CCCCCc2cccc(OC[C@H](CCC(N)=O)NC(=O)[C@@H]3CC[C@@H]4CCN(C(=O)C[C@H]5CC[C@@H](Cc6ccc7c(c6)n(C)c(=O)n7C6CCC(=O)NC6=O)CC5)C[C@H](NC(=O)c5cc6cc(C(=O)P(=O)(O)O)ccc6[nH]5)C(=O)N43)c2F)C(C)(C)C)cc1` (stereo partly shown) [I-36], under setting [1], the DC50 was 10 to 100 nM.
Turning to `C[C@@H](NC(=O)[C@H](CCC(N)=O)NC(=O)[C@@H]1CC[C@@H]2CCN(C(=O)C[C@H]3CC[C@@H](Cc4ccc5c(c4)n(C)c(=O)n5C4CCC(=O)NC4=O)CC3)C[C@H](NC(=O)c3cc4cc(C(=O)P(=O)(O)O)ccc4[nH]3)C(=O)N21)c1ccc(S(C)(=O)=O)cc1` (stereo partly shown) [I-40], the DC50 under setting [1] lay in the range of 100 to 1000 nM.
Regarding `Cn1c(=O)n(C2CCC(=O)NC2=O)c2ccc(C[C@H]3CC[C@@H](CC(=O)N4CC[C@H]5CC[C@@H](C(=O)N[C@@H](CCC(N)=O)C(=O)NC6(c7ccc(S(C)(=O)=O)cc7)CC6)N5C(=O)[C@@H](NC(=O)c5cc6cc(C(=O)P(=O)(O)O)ccc6[nH]5)C4)CC3)cc21` (stereo partly shown) [I-38], under setting [1], the DC50 lay within 100 to 1000 nM.
Same read-out and setting: the same measure for `CCS(=O)(=O)c1ccc(CNC(=O)[C@H](CCC(N)=O)NC(=O)[C@@H]2CC[C@@H]3CCN(C(=O)C[C@H]4CC[C@@H](Cc5ccc6c(c5)n(C)c(=O)n6C5CCC(=O)NC5=O)CC4)C[C@H](NC(=O)c4cc5cc(C(=O)P(=O)(O)O)ccc5[nH]4)C(=O)N32)cc1` (stereo partly shown) [I-62]: 10 to 100 nM; for `Cn1c(=O)n(C2CCC(=O)NC2=O)c2ccc(C[C@H]3CC[C@@H](CC(=O)N4CC[C@H]5CC[C@@H](C(=O)N[C@@H](CCC(N)=O)COc6ccc(S(C)(=O)=O)cc6)N5C(=O)[C@@H](NC(=O)c5cc6cc(C(=O)P(=O)(O)O)ccc6[nH]5)C4)CC3)cc21` (stereo partly shown) [I-67]: 100 to 1000 nM; for `C[C@H](NC(=O)[C@@H]1Cc2cc(CCCCCCc3ccc4c(c3)n(C)c(=O)n4C3CCC(=O)NC3=O)cc3c2N1C(=O)[C@@H](NC(=O)c1cc2cc(C(=O)P(=O)(O)O)ccc2[nH]1)CC3)C(=O)NCc1ccc(S(C)(=O)=O)cc1` (stereo partly drawn) [I-65, 2-[[(2S,11S)-6-[6-[1-(2,6-dioxopiperidin-3-yl)-3-methyl-2-oxo-1,3-benzodiazol-5-yl]hexyl]-2-[[(1S)-1-[[(4-methanesulfonylphenyl)methyl]carbamoyl]ethyl]carbamoyl]-12-oxo-1-azatricyclo[6.4.1.0^[4,13]]trideca-4(13),5,7-trien-11-yl]carbamoyl]-1H-indole-5-carbonylphosphonic acid]: above 1000 nM.
On the same count and under the same terms, the same measure for `Cn1c(=O)n(C2CCC(=O)NC2=O)c2ccc(NCCCCCc3cc4c5c(c3)C[C@@H](C(=O)N[C@@H](CCC(N)=O)C(=O)NCc3ccc(S(C)(=O)=O)cc3)N5C(=O)[C@@H](NC(=O)c3cc5cc(C(=O)P(=O)(O)O)ccc5[nH]3)CC4)cc21` (stereo partly drawn) [I-57, 2-[[(2S,11S)-2-[[(1S)-3-carbamoyl-1-[[(4-methanesulfonylphenyl)methyl]carbamoyl]propyl]carbamoyl]-6-(5-[[1-(2,6-dioxopiperidin-3-yl)-3-methyl-2-oxo-1,3-benzodiazol-5-yl]amino]pentyl)-12-oxo-1-azatricyclo[6.4.1.0^[4,13]]trideca-4(13),5,7-trien-11-yl]carbamoyl]-1H-indole-5-carbonylphosphonic acid]: 10 to 100 nM.
On the same count and under the same terms, the value for `CC(=O)N1CC[C@H]2CC[C@@H](C(=O)N[C@H](CCC(N)=O)COc3cccc(CCCCC(=O)N[C@H](C(=O)N4C[C@H](O)C[C@H]4C(=O)N[C@@H](C)c4ccc(-c5scnc5C)cc4)C(C)(C)C)c3Cl)N2C(=O)[C@@H](NC(=O)c2cc3cc(C(=O)P(=O)(O)O)ccc3[nH]2)C1` [I-24] was 100 to 1000 nM; that for `CC(=O)N1CC[C@H]2CC[C@@H](C(=O)N[C@@H](CCC(N)=O)COc3cccc(CCCOc4cc([C@H](C(=O)N5C[C@H](O)C[C@H]5C(=O)NCc5ccc(-c6scnc6C)cc5)C(C)C)on4)c3Cl)N2C(=O)[C@@H](NC(=O)c2cc3cc(C(=O)P(=O)(O)O)ccc3[nH]2)C1` [I-69] was below 10 nM.
